This is an account of results in ChEMBL document CHEMBL5241067, “An insight in anti-malarial potential of indole scaffold: A review” (Eur J Med Chem, 2021).

pEC50, pIC50: −log10 of the molar value. Values after ≈ are worked out from the molar mass of the structure shown.

The subject of data set [1] is Plasmodium falciparum. Put plainly: Antiplasmodial activity against Plasmodium falciparum DD2 assessed as growth inhibition. It counts as functional, organism-based.
Data set [2] relates to Plasmodium falciparum. Briefly: Antiplasmodial activity against Plasmodium falciparum NF54 assessed as growth inhibition. It counts as functional, organism-based.
The test system of data set [3] is Plasmodium falciparum. Briefly: Antiplasmodial activity against multidrug resistant Plasmodium falciparum K1 assessed as growth inhibition. It counts as functional, organism-based.
In a further data set the test system is Plasmodium berghei. Put plainly: In vivo antimalarial activity against Plasmodium berghei infected in mouse assessed as supression of parasitemia at 20 to 25 mg/kg, po measured for 4 days. It counts as functional. As to conditions: dose 20-25 mg/kg, time 4 day.
Data set [4] can be described thus: Cytotoxicity against HEK293 cells. It counts as toxicity, cell-based. As to conditions: human.
The test system of data set [5] is Plasmodium falciparum. Briefly: Antimalarial activity against […] Plasmodium falciparum D6 assessed as growth inhibition. It counts as functional, organism-based.
Data set [6] concerns Plasmodium falciparum. Briefly: Antimalarial activity against chloroquine-resistant Plasmodium falciparum W2 assessed as growth inhibition. It is filed as functional, organism-based.
Data set [7] has as its system Plasmodium falciparum. Put plainly: Antiplasmodial activity against Plasmodium falciparum. It is filed as functional, organism-based.
Another data set concerns KB. Briefly: Cytotoxicity against human KB cells. It is filed as functional. The settings on record: read-out: ED50 (the source's name).
Data set [8] concerns Plasmodium falciparum. Put plainly: Antiplasmodial activity against chloroquine, pyrimethamine and mefloquine-resistant Plasmodium falciparum assessed as growth inhibition. It is filed as functional, organism-based.
Data set [9] has as its system Plasmodium falciparum. Put plainly: Antiplasmodial activity against chloroquine-resistant Plasmodium falciparum DD2 assessed as growth inhibition. It is filed as functional, organism-based.
For data set [10], the system named is Plasmodium falciparum. Put plainly: Antiplasmodial activity against multidrug-resistant Plasmodium falciparum assessed as growth inhibition. It is filed as functional.

As to `O=C1c2cc(F)ccc2-n2c1nc1ccccc1c2=O`, the pIC50 is 7.00 with Plasmodium falciparum [1] and 7.24 with Plasmodium falciparum [2].

On to `Cn1c2c3cc(Br)ccc3nc-2cc2cc(Br)ccc21`, for which, in the data set on Plasmodium falciparum [3], the pIC50 was 7.30. Besides, in the data set on Plasmodium berghei, the Activity was 89%.

For the compound `CC1(C)[C@H](Cc2[nH]c3ccccc3c2CC[N+](C)(C)O)O[C@]23OC[C@H](O)[C@H]2OC(=O)[C@]13O`, the pIC50 in data set [4] was 7.10.

For `N#Cc1c(-c2ccc(F)c(F)c2)cc(-c2ccc(Br)cc2)nc1-c1c[nH]c2ccccc12`, the results for the negative-log IC50 (pIC50) in the data set with Plasmodium falciparum [5] and in the data set with Plasmodium falciparum [6] were 5.18 and 5.32, respectively.

`O=C1c2cc(Br)ccc2-n2c1nc1ccc(Cl)cc1c2=O`: the figures for the negative-log IC50 (pIC50) with Plasmodium falciparum [1] and in the data set with Plasmodium falciparum [2] were 6.91 and 7.44, respectively.

Regarding `Cc1cc(-c2cc(-c3ccccc3)nc(-c3c[nH]c4ccccc34)c2C#N)cc(C)c1C`, the figures for the negative logarithm of the IC50 (pIC50) in the data set on Plasmodium falciparum [5] and with Plasmodium falciparum [6] were 5.80 and 5.57, respectively.

For `N#Cc1c(-c2ccc(F)cc2)cc(-c2ccccc2)nc1-c1c[nH]c2ccccc12`, the values for the pIC50 in the data set on Plasmodium falciparum [5] and in the data set on Plasmodium falciparum [6] were 5.83 and 5.52, respectively.

On to `O=C1NCCc2c[nH]c3ccc4c(c23)[C@@H]1[C@H](c1ccc2c(c1)OCO2)O4`, for which the negative logarithm of the IC50 (pIC50) in the data set with Plasmodium falciparum [7] is 5.47. Also, in the data set with KB, the pEC50 is 4.62.

Take `O=C1c2cc(Br)ccc2-n2c1nc1cc(Cl)ccc1c2=O`: the pIC50 is 6.62 in the data set with Plasmodium falciparum [1] and 7.44 in the data set with Plasmodium falciparum [2].

Consider `N#Cc1c(-c2ccc(F)c(F)c2)cc(-c2ccc(F)cc2)nc1-c1c[nH]c2ccccc12`, for which the negative-log IC50 (pIC50) was 5.17 in the data set on Plasmodium falciparum [5] and 5.42 in the data set on Plasmodium falciparum [6].

Regarding `N#Cc1c(-c2ccc(F)c(F)c2)cc(-c2ccccc2)nc1-c1c[nH]c2ccccc12`, the results for the pIC50 with Plasmodium falciparum [5] and in the data set on Plasmodium falciparum [6] were 5.81 and 5.94, respectively.

For the compound `O=C1c2cc([N+](=O)[O-])ccc2-n2c1nc1cc(Cl)ccc1c2=O`, the figures for the pIC50 in the data set on Plasmodium falciparum [1] and in the data set on Plasmodium falciparum [2] were 7.51 and 7.48, respectively.

With `Cc1cc(-c2cc(-c3ccc(F)cc3)nc(-c3c[nH]c4ccccc34)c2C#N)cc(C)c1C`, the pIC50 in the data set on Plasmodium falciparum [5] was 5.27; in the data set on Plasmodium falciparum [6] it was 5.53.

In the case of `O=C1c2ccccc2-n2c1nc1ccccc1c2=O` [TRYPTANTHRIN], the figures for the negative logarithm of the IC50 (pIC50) with Plasmodium falciparum [2] and in the data set with Plasmodium falciparum [9] were 6.54 and 6.94, respectively. In the data set on Plasmodium falciparum [8], the half-inhibitory concentration (IC50) came out at 0.069 µg/mL (≈ 0.278 µM). For the same compound, in the data set on Plasmodium falciparum [10], the Activity is 100 ng/mL.

A word on the pIC50: it is −log10 of the IC50, conventionally taken in molar units. One may read the IC50 as the concentration at which inhibition is half-maximal.
